Patent US20170143712A1, “Methods of Treating Cancers, Immune and Autoimmune Diseases, and Inflammatory Diseases Based on BTK Occupancy and BTK Resynthesis Rate” (Acerta Pharma B.V., priority 2014, published 2017)

Test system: established type II collagen-induced arthritis (CIA) in DBA/1 mice
Assay: Mouse established CIA, dosing from arthritis day 8, QD or BID (Example 11)
Assay type: in vivo
Conditions: for AUC (All Paws) - Corrected for Initial Score / Change in Body Weight (g) Days 1-19 / Histopathology Summed Score Knees / Histopathology Summed Score Paws / Histopathology Summed Score Six-Joints / Paw Score AUC (All Paws): mean(SE)
Excerpt: A study was designed to determine the efficacy of a covalently acting BTK inhibitor, Formula (II) in inhibiting acute inflammation, pannus formation, cartilage destruction, and bone resorption associated with established type II collagen-induced arthritis (CIA) in DBA/1 mice. Immunization with heterologous type II collagen (CII) induces arthritis in mice of the DBA/1 strain, which is genetically susceptible to this disease. To develop an experimental model of autoimmunity more adequate for the study of human rheumatoid arthritis (RA), male DBA/1 mice were injected intradermally (ID) with bovine type II collagen to induce arthritis as reported by Trentham et al (Trentham D E, Townes A S, Kang A H Autoimmunity to type II collagen: an experimental model of arthritis. J. Exper. Med. 1977, 146:857-868) and Bendele A (Bendele A, Animal models of rheumatoid arthritis. J. Musculoskelet. Neuronal Interact. 2001, 1(4):377-85).
Following acclimatization, 6-7 week old male DBA/1 mice (n=10/group for arthritis) were immunized at the base of the tail, with 150 μL of Freund's Complete Adjuvant (Difco, Detroit, Mich.) containing 1 mg/mL bovine type II collagen by intradermal injection. Immunizations were performed day 0 and again on day 21. On study days 25-26, on day 8 following onset of arthritis, the mice were randomized into treatment groups. […] Dosing began on arthritis day 8 by oral gavage. Groups were treated with vehicle (0.4% HPMC, 0.2% Tween 80), Formula (II) at 25 mg/kg QD, Formula (II) at 12.5 mg/kg BID, or the reference compound dexamethasone (Dex) at 0.2 mg/kg QD. These animals were fasted overnight on arthritis day 20 (13 days after enrollment) prior to necropsy on arthritis day 21. Clinical scores were given for each of the paws (right front, left front, right rear, left rear) on arthritis days 1-21.
Efficacy evaluation was based on animal body weights, clinical arthritis scores, arthritis scores expressed as area under the curve (AUC), and histopathology on fore paws, hind paws, and knees. Histopathology results were expressed as 4 paws, knees only, or 6 joints (knees included). Day 19 was used as the endpoint for analysis of body weight change since the male DBA/1 mice were fasted overnight prior to necropsy on day 21.
Necropsies were conducted on fasted mice and terminal serum, fore paws, hind paws, and knees were collected into 10% neutral buffered formalin (NBF) for microscopy. Spleens were harvested and weighed.

## CC#CC(=O)N1CCC[C@H]1c1nc(-c2ccc(C(=O)Nc3ccccn3)cc2)c2c(N)nccn12 [Formula (II), (S)-4-(8-amino-3-(1-(but-2-ynoyl)pyrrolidin-2-yl)imidazo[1,5-a]pyrazin-1-yl)-N-(pyridin-2-yl)benzamide]
12.5 mg/kg BID
  Clinical arthritis score AUC (d8-d21), reduction vs vehicle controls: 59%
  absolute spleen weights, reduction vs vehicle controls: 64%
  knee bone resorption, reduction vs vehicle controls: 78%
  knee inflammation, reduction vs vehicle controls: 49%
  knee pannus formation, reduction vs vehicle controls: 80%
  six joint histopathology, reduction of summed scores: 53%
  summed knee scores, reduction vs vehicle controls: 45%
12.5 mg/kg BID, p<0.05 on days 9-21
  arthritis scores measured daily vs vehicle controls: significantly reduced toward normal
12.5 mg/kg PO BID
  AUC (All Paws) - Corrected for Initial Score: *−23.05(2.58)
  Change in Body Weight (g) Days 1-19: †0.64(0.69) g
  Histopathology Summed Score Knees: *6.73(0.60)
  Histopathology Summed Score Paws: *7.49(1.03)
  Histopathology Summed Score Six-Joints: *7.23(0.77)
  Paw Score AUC (All Paws): *22.45(2.68)
25 mg/kg PO QD
  AUC (All Paws) - Corrected for Initial Score: *−24.48(3.85)
  Change in Body Weight (g) Days 1-19: 2.37(0.28) g
  Histopathology Summed Score Knees: *6.00(0.76)
  Histopathology Summed Score Paws: *7.11(0.98)
  Histopathology Summed Score Six-Joints: *6.74(0.80)
  Paw Score AUC (All Paws): *23.63(3.37)
25 mg/kg QD
  Clinical arthritis score AUC (d8-d21), reduction vs vehicle controls: 56%
  knee bone resorption, reduction vs vehicle controls: 82%
  knee cartilage damage, reduction vs vehicle controls: 28%
  knee inflammation, reduction vs vehicle controls: 53%
  knee pannus formation, reduction vs vehicle controls: 82%
  six joint histopathology, reduction of summed scores: 56%
  summed knee scores, reduction vs vehicle controls: 51%
25 mg/kg QD or 12.5 mg/kg BID, DBA/1 mice
  tolerability: well tolerated
25 mg/kg QD, p<0.05 on days 11-21
  arthritis scores measured daily vs vehicle controls: significantly reduced toward normal
